# PubChem BioAssay (NCI)
#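 Method: 48-hour compound exposure of cells in 96-well plates, five concentrations, linear interpolation of endpoints. TGI denotes the concentration required for complete inhibition of growth.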
# Experiments:
# Experiment in all cases: inhibition of tumour cell growth, NCI panel, 48 h
# SR leukemia = system: SR leukemia
# SF-295 CNS = system: SF-295 CNS
# RPMI-8226 leukemia = system: RPMI-8226 leukemia
# HOP-62 NSCLC = system: HOP-62 NSCLC
# RXF-631 renal = system: RXF-631 renal
# M19-MEL melanoma = system: M19-MEL melanoma
# CCRF-CEM leukemia = system: CCRF-CEM leukemia
# A549 NSCLC = system: A549 NSCLC
# KM12 colon = system: KM12 colon
# MALME-3M melanoma = system: MALME-3M melanoma
# OVCAR-4 ovarian = system: OVCAR-4 ovarian
# SK-OV-3 ovarian = system: SK-OV-3 ovarian
# KM20L2 colon = system: KM20L2 colon
# OVCAR-8 ovarian = system: OVCAR-8 ovarian
# HT29 colon = system: HT29 colon
# DMS 273 small cell lung = system: DMS 273 small cell lung
# MOLT-4 leukemia = system: MOLT-4 leukemia
# NCI-H23 lung = system: NCI-H23 lung
# TK-10 renal = system: TK-10 renal
# NCI-H522 lung = system: NCI-H522 lung
# CAKI-1 renal = system: CAKI-1 renal
# UACC-62 melanoma = system: UACC-62 melanoma
# SN12C renal = system: SN12C renal
# COLO 205 colon = system: COLO 205 colon
# OVCAR-5 ovarian = system: OVCAR-5 ovarian
# SW-620 colon = system: SW-620 colon
# LXFL 529 NSCLC = system: LXFL 529 NSCLC
# LOX IMVI melanoma = system: LOX IMVI melanoma
# M14 melanoma = system: M14 melanoma
# SK-MEL-5 melanoma = system: SK-MEL-5 melanoma
# ACHN renal = system: ACHN renal
# 786-0 renal = system: 786-0 renal
# EKVX NSCLC = system: EKVX NSCLC
# SF-268 CNS = system: SF-268 CNS
# UO-31 renal = system: UO-31 renal
# HCT-15 colon = system: HCT-15 colon
# K-562 leukemia = system: K-562 leukemia
# SNB-19 CNS = system: SNB-19 CNS
# UACC-257 melanoma = system: UACC-257 melanoma
# U251 CNS = system: U251 CNS
# HCC-2998 colon = system: HCC-2998 colon
# HOP-18 NSCLC = system: HOP-18 NSCLC
# SNB-78 CNS = system: SNB-78 CNS
# OVCAR-3 ovarian = system: OVCAR-3 ovarian
# NCI-H226 lung = system: NCI-H226 lung
# XF 498 CNS = system: XF 498 CNS
# IGROV1 ovarian = system: IGROV1 ovarian
# SK-MEL-28 melanoma = system: SK-MEL-28 melanoma
# HOP-92 NSCLC = system: HOP-92 NSCLC
# SNB-75 CNS = system: SNB-75 CNS
# SK-MEL-2 melanoma = system: SK-MEL-2 melanoma
# RXF 393 renal = system: RXF 393 renal
# NCI-H460 lung = system: NCI-H460 lung
# HCT-116 colon = system: HCT-116 colon
# DLD-1 colon = system: DLD-1 colon
# HL-60(TB) leukemia = system: HL-60(TB) leukemia
# SF-539 CNS = system: SF-539 CNS
# DMS 114 small cell lung = system: DMS 114 small cell lung
# A498 renal = system: A498 renal
structure (smiles),measurement,setting,value
COc1ccc(/C=N/N=C(\N)NO)cc1F,TGI,SR leukemia,86.5 µM
same,TGI,SF-295 CNS,87.6 µM
same,TGI,RPMI-8226 leukemia,> 100 µM
same,TGI,HOP-62 NSCLC,72.5 µM
same,TGI,RXF-631 renal,> 100 µM
same,TGI,M19-MEL melanoma,72.3 µM
same,TGI,CCRF-CEM leukemia,> 100 µM
same,TGI,A549 NSCLC,85.6 µM
same,TGI,KM12 colon,> 100 µM
same,TGI,MALME-3M melanoma,> 100 µM
same,TGI,OVCAR-4 ovarian,> 100 µM
same,TGI,SK-OV-3 ovarian,> 100 µM
same,TGI,KM20L2 colon,> 100 µM
same,TGI,OVCAR-8 ovarian,> 100 µM
same,TGI,HT29 colon,38.3 µM
same,TGI,DMS 273 small cell lung,84.4 µM
same,TGI,MOLT-4 leukemia,> 100 µM
same,TGI,NCI-H23 lung,81 µM
same,TGI,TK-10 renal,> 100 µM
same,TGI,NCI-H522 lung,87.1 µM
same,TGI,CAKI-1 renal,46.5 µM
same,TGI,UACC-62 melanoma,36.3 µM
same,TGI,SN12C renal,> 100 µM
same,TGI,COLO 205 colon,> 100 µM
same,TGI,OVCAR-5 ovarian,97.2 µM
same,TGI,SW-620 colon,> 100 µM
same,TGI,LXFL 529 NSCLC,> 100 µM
same,TGI,LOX IMVI melanoma,48.7 µM
same,TGI,M14 melanoma,33.3 µM
same,TGI,SK-MEL-5 melanoma,18.5 µM
same,TGI,ACHN renal,45.3 µM
same,TGI,786-0 renal,48.5 µM
same,TGI,EKVX NSCLC,> 100 µM
same,TGI,SF-268 CNS,66.7 µM
same,TGI,UO-31 renal,39.6 µM
same,TGI,HCT-15 colon,> 100 µM
same,TGI,K-562 leukemia,56.4 µM
same,TGI,SNB-19 CNS,> 100 µM
same,TGI,UACC-257 melanoma,> 100 µM
same,TGI,U251 CNS,> 100 µM
same,TGI,HCC-2998 colon,> 100 µM
same,TGI,HOP-18 NSCLC,90.5 µM
same,TGI,SNB-78 CNS,> 100 µM
same,TGI,OVCAR-3 ovarian,> 100 µM
same,TGI,NCI-H226 lung,41.4 µM
same,TGI,XF 498 CNS,96 µM
same,TGI,IGROV1 ovarian,> 100 µM
same,TGI,SK-MEL-28 melanoma,> 100 µM
same,TGI,HOP-92 NSCLC,76.2 µM
same,TGI,SNB-75 CNS,89.5 µM
same,TGI,SK-MEL-2 melanoma,> 100 µM
same,TGI,RXF 393 renal,73.2 µM
same,TGI,NCI-H460 lung,> 100 µM
same,TGI,HCT-116 colon,> 100 µM
same,TGI,DLD-1 colon,> 100 µM
same,TGI,HL-60(TB) leukemia,> 100 µM
same,TGI,SF-539 CNS,60.1 µM
C=CC(=O)Nc1ccccc1CC(c1c[nH]c2ccccc12)c1c[nH]c2ccccc12,TGI,SF-295 CNS,49.1 µM
same,TGI,RPMI-8226 leukemia,50.5 µM
same,TGI,HOP-62 NSCLC,35.1 µM
same,TGI,RXF-631 renal,32.3 µM
same,TGI,M19-MEL melanoma,30 µM
same,TGI,CCRF-CEM leukemia,54.2 µM
same,TGI,A549 NSCLC,56.7 µM
same,TGI,KM12 colon,38.7 µM
same,TGI,MALME-3M melanoma,33.3 µM
same,TGI,SK-OV-3 ovarian,45.7 µM
same,TGI,OVCAR-8 ovarian,33.6 µM
same,TGI,HT29 colon,37.5 µM
same,TGI,DMS 273 small cell lung,32.1 µM
same,TGI,MOLT-4 leukemia,46.4 µM
same,TGI,NCI-H23 lung,38.2 µM
same,TGI,TK-10 renal,59.1 µM
same,TGI,NCI-H522 lung,48.2 µM
same,TGI,CAKI-1 renal,37.7 µM
same,TGI,UACC-62 melanoma,31.2 µM
same,TGI,SN12C renal,30.6 µM
same,TGI,COLO 205 colon,30.9 µM
same,TGI,SW-620 colon,39.2 µM
same,TGI,LXFL 529 NSCLC,30.6 µM
same,TGI,LOX IMVI melanoma,36.3 µM
same,TGI,DMS 114 small cell lung,30.1 µM
same,TGI,M14 melanoma,30.3 µM
same,TGI,SK-MEL-5 melanoma,33.4 µM
same,TGI,786-0 renal,36.2 µM
same,TGI,EKVX NSCLC,51 µM
same,TGI,SF-268 CNS,43.1 µM
same,TGI,UO-31 renal,31.7 µM
same,TGI,HCT-15 colon,38.7 µM
same,TGI,K-562 leukemia,49.2 µM
same,TGI,SNB-19 CNS,31.8 µM
same,TGI,UACC-257 melanoma,40.5 µM
same,TGI,HCC-2998 colon,33.4 µM
same,TGI,SNB-78 CNS,43.8 µM
same,TGI,OVCAR-3 ovarian,32.6 µM
same,TGI,NCI-H226 lung,40.1 µM
same,TGI,XF 498 CNS,42.3 µM
same,TGI,IGROV1 ovarian,36.6 µM
same,TGI,SK-MEL-28 melanoma,32.1 µM
same,TGI,SNB-75 CNS,28.4 µM
same,TGI,SK-MEL-2 melanoma,32.7 µM
same,TGI,SF-539 CNS,36.6 µM
CCOC(=O)C(=O)Nc1c(C)cccc1C(C)(C)C,TGI,SF-295 CNS,> 100 µM
same,TGI,RPMI-8226 leukemia,> 100 µM
same,TGI,HOP-62 NSCLC,> 100 µM
same,TGI,RXF-631 renal,> 100 µM
same,TGI,M19-MEL melanoma,> 100 µM
same,TGI,KM12 colon,> 100 µM
same,TGI,MALME-3M melanoma,> 100 µM
same,TGI,OVCAR-4 ovarian,> 100 µM
same,TGI,SK-OV-3 ovarian,> 100 µM
same,TGI,KM20L2 colon,> 100 µM
same,TGI,OVCAR-8 ovarian,> 100 µM
same,TGI,HT29 colon,> 100 µM
same,TGI,DMS 273 small cell lung,> 100 µM
same,TGI,MOLT-4 leukemia,> 100 µM
same,TGI,NCI-H23 lung,> 100 µM
same,TGI,TK-10 renal,> 100 µM
same,TGI,NCI-H522 lung,> 100 µM
same,TGI,CAKI-1 renal,> 100 µM
same,TGI,UACC-62 melanoma,> 100 µM
same,TGI,SN12C renal,> 100 µM
same,TGI,COLO 205 colon,> 100 µM
same,TGI,OVCAR-5 ovarian,> 100 µM
same,TGI,SW-620 colon,> 100 µM
same,TGI,LXFL 529 NSCLC,> 100 µM
same,TGI,LOX IMVI melanoma,> 100 µM
same,TGI,DMS 114 small cell lung,> 100 µM
same,TGI,M14 melanoma,> 100 µM
same,TGI,SK-MEL-5 melanoma,> 100 µM
same,TGI,ACHN renal,> 100 µM
same,TGI,786-0 renal,> 100 µM
same,TGI,EKVX NSCLC,> 100 µM
same,TGI,SF-268 CNS,> 100 µM
same,TGI,UO-31 renal,> 100 µM
same,TGI,HCT-15 colon,> 100 µM
same,TGI,K-562 leukemia,> 100 µM
same,TGI,SNB-19 CNS,> 100 µM
same,TGI,UACC-257 melanoma,> 100 µM
same,TGI,U251 CNS,> 100 µM
same,TGI,HCC-2998 colon,> 100 µM
same,TGI,HOP-18 NSCLC,> 100 µM
same,TGI,SNB-78 CNS,> 100 µM
same,TGI,OVCAR-3 ovarian,> 100 µM
same,TGI,NCI-H226 lung,> 100 µM
same,TGI,XF 498 CNS,> 100 µM
same,TGI,IGROV1 ovarian,> 100 µM
same,TGI,SK-MEL-28 melanoma,> 100 µM
same,TGI,HOP-92 NSCLC,> 100 µM
same,TGI,SNB-75 CNS,> 100 µM
same,TGI,SK-MEL-2 melanoma,> 100 µM
same,TGI,RXF 393 renal,> 100 µM
same,TGI,NCI-H460 lung,> 100 µM
same,TGI,HCT-116 colon,> 100 µM
same,TGI,SF-539 CNS,> 100 µM
COC(=O)C12C34C=CC5(CCC6(C=CC1(CC3)O6)C52C(=O)OC)O4 (centres undefined),TGI,SR leukemia,> 100 µM
same,TGI,SF-295 CNS,> 100 µM
same,TGI,HOP-62 NSCLC,> 100 µM
same,TGI,RXF-631 renal,> 100 µM
same,TGI,M19-MEL melanoma,> 100 µM
same,TGI,CCRF-CEM leukemia,> 100 µM
same,TGI,A549 NSCLC,> 100 µM
same,TGI,KM12 colon,> 100 µM
same,TGI,MALME-3M melanoma,> 100 µM
same,TGI,OVCAR-4 ovarian,> 100 µM
same,TGI,SK-OV-3 ovarian,> 100 µM
same,TGI,KM20L2 colon,> 100 µM
same,TGI,OVCAR-8 ovarian,> 100 µM
same,TGI,HT29 colon,> 100 µM
same,TGI,DMS 273 small cell lung,> 100 µM
same,TGI,MOLT-4 leukemia,> 100 µM
same,TGI,NCI-H23 lung,> 100 µM
same,TGI,TK-10 renal,> 100 µM
same,TGI,NCI-H522 lung,> 100 µM
same,TGI,CAKI-1 renal,> 100 µM
same,TGI,SN12C renal,> 100 µM
same,TGI,COLO 205 colon,> 100 µM
same,TGI,OVCAR-5 ovarian,> 100 µM
same,TGI,SW-620 colon,> 100 µM
same,TGI,LXFL 529 NSCLC,> 100 µM
same,TGI,LOX IMVI melanoma,> 100 µM
same,TGI,ACHN renal,> 100 µM
same,TGI,786-0 renal,> 100 µM
same,TGI,EKVX NSCLC,> 100 µM
same,TGI,SF-268 CNS,> 100 µM
same,TGI,K-562 leukemia,> 100 µM
same,TGI,SNB-19 CNS,> 100 µM
same,TGI,UACC-257 melanoma,> 100 µM
same,TGI,U251 CNS,> 100 µM
same,TGI,HCC-2998 colon,> 100 µM
same,TGI,HOP-18 NSCLC,> 100 µM
same,TGI,SNB-78 CNS,> 100 µM
same,TGI,NCI-H226 lung,> 100 µM
same,TGI,XF 498 CNS,> 100 µM
same,TGI,IGROV1 ovarian,> 100 µM
same,TGI,SK-MEL-28 melanoma,> 100 µM
same,TGI,HOP-92 NSCLC,> 100 µM
same,TGI,A498 renal,> 100 µM
same,TGI,SK-MEL-2 melanoma,> 100 µM
same,TGI,RXF 393 renal,> 100 µM
same,TGI,NCI-H460 lung,> 100 µM
same,TGI,HCT-116 colon,> 100 µM
same,TGI,HL-60(TB) leukemia,> 100 µM
same,TGI,SF-539 CNS,> 100 µM
